“Also recorded” adds a separate entry of the source.
These molecules were tested against T1, HIOMT2 (OMT2) O-methyltransferase (Humulus lupulus, UniProt B0ZB56) (assay: 14C-SAM methylation enzyme assay with recombinant HIOMT2 (OMT2) insect cell lysate). Details: recombinant enzyme from Sf9 insect cell lysate, 14C-SAM methyl donor, ethyl acetate extract, scintillation counting.
T1 construct: The open reading frame of each enzyme was cloned into the baculovirus expression vector pFastBacHT (Invitrogen); 6xHis with TEV site, from the pFastBacHT vector (own knowledge); made in house; host or cells: Spodoptera frugiperda (Sf9) insect cells, baculovirus; crude cell lysate
T1 sequence (B0ZB56 1-360): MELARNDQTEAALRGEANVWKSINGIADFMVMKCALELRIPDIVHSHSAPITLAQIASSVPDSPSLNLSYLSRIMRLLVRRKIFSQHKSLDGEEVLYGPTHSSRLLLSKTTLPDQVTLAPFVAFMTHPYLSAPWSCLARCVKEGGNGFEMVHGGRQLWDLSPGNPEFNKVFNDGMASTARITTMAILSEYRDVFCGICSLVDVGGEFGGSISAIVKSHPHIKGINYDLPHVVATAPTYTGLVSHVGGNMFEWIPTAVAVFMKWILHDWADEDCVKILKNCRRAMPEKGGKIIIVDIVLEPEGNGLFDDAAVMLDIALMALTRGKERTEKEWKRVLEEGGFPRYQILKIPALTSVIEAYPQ
Type: biochemical
Source text: (§1) The open reading frame of each enzyme was cloned into the baculovirus expression vector pFastBacHT (Invitrogen) and the resulting bacmid generated using the Bac-to-Bac system (Invitrogen). The bacmid was used to transfect Spodoptera frugiperda (Sf9) insect cells. After amplification of the baculovirus through several passages, insect cell monolayers were infected, cultivated for 2-4 days and then centrifuged to separate cells from culture media. Cell pellets were lysed and aliquots used directly in enzyme assay containing ^14C—S-adenosyl methionine (^14C-SAM) as a methyl donor and various phenolic and phenylpropanoid natural products as substrates. Methylation activity was measured by the extraction of the enzyme reaction with ethyl acetate and its analysis by scintillation counting. In this assay, ^14C-methylation of one of the proffered substrates is indicated by the presence of radioactivity in the ethyl acetate extract.
O=C(/C=C/c1ccc(O)cc1)c1ccc(O)cc1O [isoliquiritigenin] was tested, and the “methylation of substrate by OMT2” value was “methylate”.
With COc1cc(O)c(CC=C(C)C)c(O)c1C(=O)C=Cc1ccc(O)cc1 [xanthohumol, 1-[2,4-dihydroxy-6-methoxy-3-(3-methylbut-2-enyl)phenyl]-3-(4-hydroxyphenyl)-prop-2-en-1-one] the “methylation of substrate by OMT2” value was “methylate”.
With Cc1cc(O)cc(O)c1 [orcinol] the “methylation of substrate by OMT2” value was “methylate”.
Oc1cccc(O)c1 [resorcinol] was tested, and the “methylation of substrate by OMT2” value was “methylate”.
With Oc1ccc(C=Cc2cc(O)cc(O)c2)cc1 [resveratrol] the “methylation of substrate by OMT2” value was “methylate”.
For Oc1ccccc1O [catechol], the “methylation of substrate by OMT2” value was “methylate”.
In the case of C=CCc1ccc(O)c(OC)c1 [eugenol], the “methylation of substrate by OMT2” value is reported as “methylate”.
For O=c1c(-c2ccc(O)cc2)coc2cc(O)cc(O)c12 [genistein], the “methylation of substrate by OMT2” value was “methylate”.
In the case of COc1ccccc1O [guaiacol], the “methylation of substrate by OMT2” value is reported as “methylate”.
With O=C(/C=C/c1ccc(O)c(O)c1)c1ccc(O)cc1O [butein] the “methylation of substrate by OMT2” value was “methylate”.
In the case of CC(C)=CCc1c(O)cc(O)c(C(=O)/C=C/c2ccc(O)cc2)c1O [desmethylxanthohumol], the “methylation of substrate by OMT2” value is reported as “capable of using desmethylxanthohumol as a substrate; also recorded: methylate”.
O=C(/C=C/c1ccc(O)cc1)c1c(O)cc(O)cc1O [chalconaringenin] was tested, and the “methylation of substrate by OMT2” value was “methylate”.
In the case of O=C(/C=C/c1ccc(O)cc1)c1ccccc1O [2′,4-dihydroxychalcone], the “methylation of substrate by OMT2” value is reported as “methylate”.

These molecules were tested against T2, HIOMT1 (OMT1) O-methyltransferase (Humulus lupulus, UniProt B0ZB55, L311X) (assay: 14C-SAM methylation enzyme assay with recombinant HIOMT1 (OMT1) insect cell lysate). Details: crude insect cell lysate, 14C-SAM, radio-HPLC analysis; product xanthohumol.
T2 construct: The open reading frame of each enzyme was cloned into the baculovirus expression vector pFastBacHT (Invitrogen); 6xHis with TEV site, from the pFastBacHT vector (own knowledge); made in house; host or cells: Spodoptera frugiperda (Sf9) insect cells, baculovirus; crude cell lysate
Type: biochemical
Experimental: FIG. 3. Enzymatic activity of HIOMT1 showing that this enzyme methylates desmethylxanthohumol to produce xanthohumol. […] Recombinant HIOMT1 was expressed in insect cells and crude cell lysate used for enzymatic assay. (A) Radio-HPLC analysis of reaction products from empty vector control lysate incubated with ^14C-SAM and desmethylxanthohumol. (B) Radio-HPLC analysis of reaction products from HIOMT1 lysate incubated with ^14C-SAM. (C) Radio-HPLC analysis of reaction products HIOMT1 lysate incubated with ^14C-SAM and desmethylxanthohumol showing that xanthohumol is formed (D) Reversed-phase HPLC analysis of authentic xanthohumol.
as §1
For CC(C)=CCc1c(O)cc(O)c(C(=O)/C=C/c2ccc(O)cc2)c1O [desmethylxanthohumol], the “methylation by HIOMT1, reaction product by radio-HPLC (FIG. 3)” value was “methylates desmethylxanthohumol to form xanthohumol”.

Same assay, conditions: recombinant enzyme from Sf9 insect cell lysate, 14C-SAM methyl donor, ethyl acetate extract, scintillation counting
With COc1cc(O)c(C(=O)/C=C/c2ccc(O)cc2)c(O)c1CC=C(C)C [xanthogalenol] the “methylation of substrate by OMT1” value was “methylate”.
For CC(C)=CCc1c(O)cc(O)c(C(=O)/C=C/c2ccc(O)cc2)c1O [desmethylxanthohumol], the “methylation of substrate by OMT1” value was “capable of using desmethylxanthohumol as a substrate; also recorded: methylate”.

— patent publication US7723088B2, “DNA sequences involved in prenylflavonoid biosynthesis in hops and their use in modifying prenylflavonoid production in plants” (priority 2005, dated 2010)
